Experimental data reported in patent US20090069271A1, “WOOD TREATMENT” (priority 2005, published 2009).
Read-outs that look alike come from different tables or passages of the source.

Assays:
[1] = aqueous dioxane, tri-(dicyclohexylcarbinyl) borate = 1, cited from earlier work
[2] = base catalysed hydrolysis, 60% aqueous dioxane at 21°; cited from earlier work
[3] = Pseudo three-dimensional hydrolysis test, sample layered on distilled water; assay type: physicochemical; details: sample layered on distilled water in a test tube; 20 mls sample layered on 10 mls distilled water in 19 mm test tube
Procedure: A pseudo three-dimensional test was made by taking 10 mls of distilled water and placing in a 19 mm diameter test tube. 20 mls of sample was then layered on the water; the rate of hydrolysis was then measured. This was done by taking 2 ml samples from the test tube over time, refluxing and titrating the 2 ml samples to get the concentration. The test was with n-butyl di-n-propyl borate, which should have similar kinetic properties to tri-n-propyl borate and tri-n-butyl borate. The test was also done with tri-n-octyl borate.
It can be seen that there is an exponential difference in the half-life when changing the conditions of hydrolysis. For the commercial method of which the patent covers, the hydrolysis rate is slow enough to give consistent uptake of product in the timber and provide stable solution concentration.

Structure (SMILES)	Relative rate of hydrolysis [1]	also measured
CCCC1OB(OCC(CC)C(CCC)OB2OCC(CC)C(CCC)O2)OCC1CC (centres unmarked) [Tri-(octylene glycol) biborate]	3.92 × 10^5	–
CCOB(OCC)OCC [Triethyl borate]	–	Half-life(sec.) [2]: Too fast to measure
COB(OC)OC [Trimethyl borate]	–	Half-life(sec.) [2]: Too fast to measure
CCCCCCCC/C=C\CCCCCCCCOB(OCCCCCCCC/C=C\CCCCCCCC)OCCCCCCCC/C=C\CCCCCCCC [Trioleyl borate]	3.57 × 10^4	–
CCCCCOB(OCCCCC)OCCCCC [Tri-n-amyl borate]	5.87 × 10^5	Half-life [2]: 1.0 s
CCC(C)OB(OC(C)CC)OC(C)CC (centres unmarked) [Tri-s-butyl borate]	1.68 × 10^5	–
CCCOB(OCCC)OCCC [Tri-n-propyl borate]	–	Half-life(sec.) [2]: Too fast to measure
c1ccc([C@H]2CCCC[C@H]2OB(O[C@@H]2CCCC[C@@H]2c2ccccc2)O[C@@H]2CCCC[C@@H]2c2ccccc2)cc1 (relative stereo) [Tri-(cis-2-phenylcyclohexyl) borate]	28.2	–
CCC(C)(C)OB(OC(C)(C)CC)OC(C)(C)CC [Tri-t-amyl borate]	449	–
CCCCCCCCCCCCCCCCCCOB(OCCCCCCCCCCCCCCCCCC)OCCCCCCCCCCCCCCCCCC [Tristearyl borate]	2.71 × 10^4	Half-life [2]: 21.7 s
CC(C)CC(C)OB(OC(C)CC(C)C)OC(C)CC(C)C (centres unmarked) [Tri-(methylisobutylcarbinyl) borate]	2430	–
c1ccc(C2CCCCC2OB(OC2CCCCC2c2ccccc2)OC2CCCCC2c2ccccc2)cc1 (centres unmarked) [Tri-(2-phenylcyclohexyl) borate]	34.1	–
CC(C)(C)OB(OC(C)(C)C)OC(C)(C)C [Tri-t-butyl borate]	1370	–
CCC(CC)OB(OC(CC)CC)OC(CC)CC [Tri-3-pentyl borate]	483	–
CCCCOB(OCCCC)OCCCC [Tri-n-butyl borate]	–	Half-life(sec.) [2]: Too fast to measure; Half-life [3]: 89 h
CCCCC(CC)OB(OC(CC)CCCC)OC(CC)CCCC (centres unmarked) [Tri-3-heptyl borate]	415	–
CC(C)CC(C)CC(CC(C)C)OB(OC(CC(C)C)CC(C)CC(C)C)OC(CC(C)C)CC(C)CC(C)C (centres unmarked) [Tri-(2,6,8-trimethyl-4-nonyl) borate]	4.83	–
CCCCCCOB(OCCCCCC)OCCCCCC [Tri-hexyl borate]	2.02 × 10^5	Half-life [2]: 2.9 s
CCCCOB(OCCC)OCCC [n-butyl di-n-propyl borate]	–	Half-life [3]: 6.5 h
C1CCC(OB(OC2CCCCC2)OC2CCCCC2)CC1 [Tri-(2-cyclohexyl) borate]	3.67	–
CCCCCCC(C)OB(OC(C)CCCCCC)OC(C)CCCCCC (centres unmarked) [Tri-2-octyl borate]	4.33 × 10^3	–
CC(C)CC(CC(C)C)OB(OC(CC(C)C)CC(C)C)OC(CC(C)C)CC(C)C [Tri-(diisobutylcarbinyl) borate]	5.86	–
c1ccc([C@@H]2CCCC[C@H]2OB(O[C@@H]2CCCC[C@H]2c2ccccc2)O[C@@H]2CCCC[C@H]2c2ccccc2)cc1 (relative stereo) [Tri-(trans-2-phenylcylohexyl) borate]	40.0	–
C#CC1(OB(OC2(C#C)CCCCC2)OC2(C#C)CCCCC2)CCCCC1 [Tri-(1-ethynylcyclohexyl) borate]	4.29 × 10^4	–
CCCCCCCCOB(OCCCCCCCC)OCCCCCCCC [Tri-n-octyl borate]	3.67 × 10^4	Half-life [2]: 16.0 s
CCCCC(CC)COB(OCC(CC)CCCC)OCC(CC)CCCC (centres unmarked) [Tri-(2-ethylhexyl) borate]	2.77 × 10^3	–
CCCCCCCCCCCCOB(OCCCCCCCCCCCC)OCCCCCCCCCCCC [Tri-n-dodecyl borate]	2.77 × 10^4	Half-life [2]: 21.3 s; Relative rate of hydrolysis ([1]; listed as Tri-dodecyl borate): 2.77×10^4
C1CCC(C(OB(OC(C2CCCCC2)C2CCCCC2)OC(C2CCCCC2)C2CCCCC2)C2CCCCC2)CC1 [Tri-(dicyclohexylcarbinyl) borate]	1	–
